Assay results reported in patent US12098144B2, “Piperazine indazole glucocorticoid receptor antagonists” (Corcept Therapeutics Incorporated, priority 2021, dated 2024).

Target: T1, glucocorticoid receptor (Homo sapiens, UniProt P04150)
T1 construct: endogenous in cells; ATCC cat
T1 sequence (P04150 1-777): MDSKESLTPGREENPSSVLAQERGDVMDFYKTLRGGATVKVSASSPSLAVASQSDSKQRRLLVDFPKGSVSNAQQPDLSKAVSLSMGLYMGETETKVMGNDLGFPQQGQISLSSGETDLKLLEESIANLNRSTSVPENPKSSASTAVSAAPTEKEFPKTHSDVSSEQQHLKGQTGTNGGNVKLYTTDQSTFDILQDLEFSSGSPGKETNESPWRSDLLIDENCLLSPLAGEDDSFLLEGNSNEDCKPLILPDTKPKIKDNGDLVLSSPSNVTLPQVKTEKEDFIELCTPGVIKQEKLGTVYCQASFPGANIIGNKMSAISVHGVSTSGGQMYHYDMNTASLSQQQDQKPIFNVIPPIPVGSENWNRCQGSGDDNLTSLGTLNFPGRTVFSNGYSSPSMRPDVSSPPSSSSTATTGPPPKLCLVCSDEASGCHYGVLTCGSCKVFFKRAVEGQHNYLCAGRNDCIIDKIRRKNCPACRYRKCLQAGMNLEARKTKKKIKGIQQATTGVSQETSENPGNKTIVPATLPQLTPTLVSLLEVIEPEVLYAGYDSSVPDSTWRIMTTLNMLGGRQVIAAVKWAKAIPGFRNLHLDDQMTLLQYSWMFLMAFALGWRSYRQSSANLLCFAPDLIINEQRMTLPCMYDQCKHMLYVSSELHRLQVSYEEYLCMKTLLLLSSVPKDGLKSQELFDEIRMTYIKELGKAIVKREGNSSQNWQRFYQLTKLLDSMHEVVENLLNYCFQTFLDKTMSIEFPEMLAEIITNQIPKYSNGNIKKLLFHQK
Test: Hep G2 TAT IC50: inhibition of dexamethasone-induced TAT in HepG2 cells (384 well)
Type: cell-based
Protocol: Glucocorticoid mediated activation of TAT occurs by transactivation of glucocorticoid response elements in the TAT promoter by glucocorticoid receptor/agonist complex.
HepG2 cells were cultured using MEME media supplemented with 10% (v/v) foetal bovine serum, 2 mM L-glutamine, 1% (v/v) NEAA, and 1% (v/v) penstrep, at 37° C., 5%/95% (v/v) CO2/air.
Compounds were diluted from a 10 mM stock via an Echo Acoustic liquid handler into 10 μL assay media to generate a 10-point half-log dilution curve.
HepG2 cells were then lysed with 8 μL of cell lysis buffer containing a protease inhibitor cocktail for 15 minutes at 25° C. […] After a 2-hour incubation at 37° C. the reaction was terminated by the addition of 8 μL of 5 M aqueous potassium hydroxide solution, and the plates incubated for a further 30 minutes at 37° C.
[compound] and fitting the data to a 4-parameter logistic equation.

SMILES | IC50
Cc1cc2c(cnn2-c2ccc(F)cc2)cc1C1CN(S(=O)(=O)N2CCOCC2)CCN1CC1CCC1 (single isomer, unassigned) [Example 178, 4-(4-(cyclobutylmethyl)-3-[1-(4-fluorophenyl)-6-methyl-indazol-5-yl]piperazin-1-yl)sulfonylmorpholine] | 3.43 µM
Cc1cc2c(cnn2-c2ccc(F)cc2)cc1C1CN(S(=O)(=O)N2CCOCC2)CCN1CC1CC(F)(F)C1 (single isomer, unassigned) [Example 179, 4-(4-((3,3-difluorocyclobutyl)methyl)-3-(1-(4-fluorophenyl)-6-methyl-indazol-5-yl)piperazin-1-yl)sulfonylmorpholine] | 2.02 µM
Cc1cc2c(cnn2-c2ccc(F)cc2)cc1C1CN(S(=O)(=O)N2CCOCC2)CCN1CC1CCCC1 (single isomer, unassigned) [Example 180, 4-(4-(cyclopentylmethyl)-3-(1-(4-fluorophenyl)-6-methyl-indazol-5-yl)piperazin-1-yl)sulfonylmorpholine] | 2.09 µM
Cc1cc2c(cnn2-c2ccc(F)cc2)cc1C1CN(S(=O)(=O)N(C)C)CCN1CCC(F)(F)F (single isomer, unassigned) [Example 181, 3-(1-(4-fluorophenyl)-6-methyl-indazol-5-yl)-N,N-dimethyl-4-(3,3,3-trifluoropropyl)piperazine-1-sulfonamide] | 1.66 µM
Cc1cc2c(cnn2-c2ccc(F)cc2)cc1C1CN(S(=O)(=O)N(C)C)CCN1CC1CCC1 (single isomer, unassigned) [Example 182, 4-(cyclobutylmethyl)-3-(1-(4-fluorophenyl)-6-methyl-indazol-5-yl)-N,N-dimethyl-piperazine-1-sulfonamide] | 3.59 µM
Cc1cc2c(cnn2-c2ccc(F)cc2)cc1C1CN(S(=O)(=O)N(C)C)CCN1CC1CC(F)(F)C1 (single isomer, unassigned) [Example 183, 4-((3,3-difluorocyclobutyl)methyl)-3-(1-(4-fluorophenyl)-6-methyl-indazol-5-yl)-N,N-dimethyl-piperazine-1-sulfonamide] | 2.66 µM
Cc1nc(S(=O)(=O)N2CCN(CC3CCC3)C(c3cc4cnn(-c5ccc(F)cc5)c4cc3C)C2)cs1 (single isomer, unassigned) [Example 184, 4-(4-(cyclobutylmethyl)-3-(1-(4-fluorophenyl)-6-methyl-indazol-5-yl)piperazin-1-yl)sulfonyl-2-methyl-thiazole] | 1.16 µM
Cc1nc(S(=O)(=O)N2CCN(CC3CC(C)(C)C3)C(c3cc4cnn(-c5ccc(F)cc5)c4cc3C)C2)cs1 (single isomer, unassigned) [Example 185, 4-(4-((3,3-dimethylcyclobutyl)methyl)-3-(1-(4-fluorophenyl)-6-methyl-indazol-5-yl)piperazin-1-yl)sulfonyl-2-methyl-thiazole] | 1.22 µM
Cc1nc(S(=O)(=O)N2CCN(CC3CCCC3)C(c3cc4cnn(-c5ccc(F)cc5)c4cc3C)C2)cs1 (single isomer, unassigned) [Example 186, 4-(4-(cyclopentylmethyl)-3-(1-(4-fluorophenyl)-6-methyl-indazol-5-yl)piperazin-1-yl)sulfonyl-2-methyl-thiazole] | 2.4 µM
Cc1ncc(S(=O)(=O)N2CCN(CC3CCCC3)C(c3cc4cnn(-c5ccc(F)cc5)c4cc3C)C2)s1 (single isomer, unassigned) [Example 187, 5-(4-(cyclopentylmethyl)-3-(1-(4-fluorophenyl)-6-methyl-indazol-5-yl)piperazin-1-yl)sulfonyl-2-methyl-thiazole] | 1.66 µM
Cc1cc2c(cnn2-c2ccc(F)cc2)cc1C1CN(S(=O)(=O)c2cccnn2)CCN1CC(C)C (single isomer, unassigned) [Example 190, 1-(4-fluorophenyl)-5-(1-isobutyl-4-pyridazin-3-ylsulfonyl-piperazin-2-yl)-6-methyl-indazole] | 1.07 µM
Cc1cc2c(cnn2-c2ccc(F)cc2)cc1C1CN(S(=O)(=O)N2CCOCC2)CCN1Cc1ccccc1 (single isomer, unassigned) [Example 214, 4-(4-benzyl-3-(1-(4-fluorophenyl)-6-methyl-indazol-5-yl)piperazin-1-yl)sulfonylmorpholine] | 2.75 µM
Cc1cc2c(cnn2-c2ccc(F)cc2)cc1C1CN(S(=O)(=O)N2CCOCC2)CCN1CCc1ccccc1 (single isomer, unassigned) [Example 215, 4-(3-(1-(4-fluorophenyl)-6-methyl-indazol-5-yl)-4-(2-phenylethyl)piperazin-1-yl)sulfonylmorpholine] | 3.98 µM
Cc1cc2c(cnn2-c2ccc(F)cc2)cc1C1CN(S(=O)(=O)c2cnn(C)n2)CCCN1CCC(F)(F)F (stereo not shown) [Example 173, 1-(4-fluorophenyl)-6-methyl-5-(4-(2-methyltriazol-4-yl)sulfonyl-1-(3,3,3-trifluoropropyl)-1,4-diazepan-2-yl)indazole] | 2.75 µM
CCn1cc(S(=O)(=O)N2CCN(CCC(F)(F)F)C(c3cc4cnn(-c5cc(C)c(=O)n(C)c5)c4cc3C)C2)cn1 (stereo not shown) [Example 174, 5-(5-(4-(1-ethylpyrazol-4-yl)sulfonyl-1-(3,3,3-trifluoropropyl)piperazin-2-yl)-6-methyl-indazol-1-yl)-1,3-dimethyl-pyridin-2-one] | 0.191 µM
Cc1cc2c(cnn2-c2cc(C)c(=O)n(C)n2)cc1C1CN(S(=O)(=O)c2cnn(C)n2)CCN1CCC(F)(F)F (stereo not shown) [Example 175, 2,4-dimethyl-6-(6-methyl-5-(4-(2-methyltriazol-4-yl)sulfonyl-1-(3,3,3-trifluoropropyl)piperazin-2-yl)indazol-1-yl)pyridazin-3-one] | 1.24 µM
COc1cc2c(cnn2-c2ccc(F)cc2)cc1C1CN(S(=O)(=O)c2csc(C)n2)CCN1CCC(F)(F)F (stereo not shown) [Example 188, 4-(3-(1-(4-fluorophenyl)-6-methoxy-indazol-5-yl)-4-(3,3,3-trifluoropropyl)piperazin-1-yl)sulfonyl-2-methyl-thiazole] | 1.32 µM
COc1cc2c(cnn2-c2ccc(F)cc2)cc1C1CN(S(=O)(=O)c2csc(C)n2)CCN1CC1CCCC1 (stereo not shown) [Example 189, 4-(4-(cyclopentylmethyl)-3-(1-(4-fluorophenyl)-6-methoxy-indazol-5-yl)piperazin-1-yl)sulfonyl-2-methyl-thiazole] | 1.66 µM
Cc1ncc(S(=O)(=O)N2CCCN(CCC(F)(F)F)C(c3cc4cnn(-c5ccc(F)cc5)c4cc3C)C2)s1 (stereo not shown) [Example 191, 5-((3-(1-(4-fluorophenyl)-6-methyl-indazol-5-yl)-4-(3,3,3-trifluoropropyl)-1,4-diazepan-1-yl)sulfonyl)-2-methyl-thiazole] | 4.03 µM
COc1cc2c(cnn2-c2ccc(F)cc2)cc1C1CN(S(=O)(=O)N2CCOCC2)CCN1CCC(F)(F)F (stereo not shown) [Example 192, 4-(3-(1-(4-fluorophenyl)-6-methoxy-indazol-5-yl)-4-(3,3,3-trifluoropropyl)piperazin-1-yl)sulfonylmorpholine] | 3.16 µM
COc1cc2c(cnn2-c2ccc(F)cc2)cc1C1CN(S(=O)(=O)N2CCOCC2)CCN1CC1CC(F)(F)C1 (stereo not shown) [Example 193, 4-(4-((3,3-difluorocyclobutyl)methyl)-3-(1-(4-fluorophenyl)-6-methoxy-indazol-5-yl)piperazin-1-yl)sulfonylmorpholine] | 2.79 µM
Cc1cc2c(cnn2-c2cc(C)c(=O)n(C)c2)cc1C1CN(S(=O)(=O)c2cccnc2)CCN1CCC(F)(F)F (stereo not shown) [Example 194, 1,3-dimethyl-5-(6-methyl-5-(4-(3-pyridylsulfonyl)-1-(3,3,3-trifluoropropyl)piperazin-2-yl)indazol-1-yl)pyridin-2-one] | 0.443 µM
Cc1cc2c(cnn2-c2cc(C)c(=O)n(C)c2)cc1C1CN(S(=O)(=O)c2ccccn2)CCN1CCC(F)(F)F (stereo not shown) [Example 195, 1,3-dimethyl-5-(6-methyl-5-(4-(2-pyridylsulfonyl)-1-(3,3,3-trifluoropropyl)piperazin-2-yl)indazol-1-yl)pyridin-2-one] | 0.253 µM
Cc1cc2c(cnn2-c2cc(C)c(=O)n(C)c2)cc1C1CN(S(=O)(=O)N(C)C)CCN1CCC(F)(F)F (stereo not shown) [Example 196, 3-(1-(1,5-dimethyl-6-oxo-3-pyridyl)-6-methyl-indazol-5-yl)-N,N-dimethyl-4-(3,3,3-trifluoropropyl)piperazine-1-sulfonamide] | 0.284 µM
Cc1cc2c(cnn2-c2ccc(=O)n(C)c2)cc1C1CN(S(=O)(=O)c2cccnc2)CCN1CCC(F)(F)F (stereo not shown) [Example 197, 1-methyl-5-(6-methyl-5-(4-(3-pyridylsulfonyl)-1-(3,3,3-trifluoropropyl)piperazin-2-yl)indazol-1-yl)pyridin-2-one] | 1 µM
